Measured values from ChEMBL document CHEMBL1136029, “Inhibition of estrone sulfatase (ES) by derivatives of 4-[(aminosulfonyl)oxy] benzoic acid” (Bioorg Med Chem Lett, 2002).

Columns and labels:
[1] = target: T1, Steryl-sulfatase (Homo sapiens) (UniProt P08842); experiment: Compound was tested for the Inhibitory activity against the Estrone Sulfatase at a concentration of 10 uM
T1 sequence (whole entry): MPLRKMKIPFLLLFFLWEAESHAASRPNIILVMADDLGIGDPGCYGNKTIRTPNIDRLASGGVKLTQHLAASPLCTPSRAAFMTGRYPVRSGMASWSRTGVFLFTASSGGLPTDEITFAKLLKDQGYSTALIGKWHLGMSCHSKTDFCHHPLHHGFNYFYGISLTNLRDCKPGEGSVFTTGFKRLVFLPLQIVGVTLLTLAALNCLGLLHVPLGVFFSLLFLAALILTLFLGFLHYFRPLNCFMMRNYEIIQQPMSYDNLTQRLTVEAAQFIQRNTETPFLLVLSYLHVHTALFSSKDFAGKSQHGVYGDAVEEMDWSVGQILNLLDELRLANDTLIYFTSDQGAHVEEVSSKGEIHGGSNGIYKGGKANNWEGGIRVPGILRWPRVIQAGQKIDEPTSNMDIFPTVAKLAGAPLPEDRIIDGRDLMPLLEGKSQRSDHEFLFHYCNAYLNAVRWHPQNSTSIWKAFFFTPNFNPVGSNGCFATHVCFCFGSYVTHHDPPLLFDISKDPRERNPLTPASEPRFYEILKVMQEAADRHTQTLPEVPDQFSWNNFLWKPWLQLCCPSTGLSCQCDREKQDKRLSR

[2] = target: T1, Steryl-sulfatase (Homo sapiens); experiment: Compound was tested for the Inhibitory activity against the Estrone Sulfatase at a concentration of 50 uM
[3] = Dissociation constant determined by calculating its overall stability; type: physicochemical
Steryl-sulfatase [4] = target: T2, Steryl-sulfatase (Homo sapiens, UniProt P08842); experiment: Inhibitory activity against Estrone Sulfatase
T2 sequence (P08842 whole entry): T1 sequence (whole entry)

Steryl-sulfatase [5] = target: T2, Steryl-sulfatase; experiment: Inhibitory activity against Estrone sulfatase was determined
[6] = target: T1, Steryl-sulfatase (Homo sapiens); experiment: Compound was tested for the Inhibitory activity against the Estrone sulfatase at a concentration of 10 uM
[7] = target: T1, Steryl-sulfatase (Homo sapiens); experiment: Compound was tested for the Inhibitory activity against the Estrone sulfatase at a concentration of 50 uM

`C[C@]12CC[C@@H]3c4ccc(OS(N)(=O)=O)cc4CCC3[C@@H]1CCC2=O` (single isomer, unassigned) showed an inhibition [1] of 68.6%.
With `CCOC(=O)c1ccc(OS(N)(=O)=O)cc1` the inhibition [2] was 63.4%, the pKa [3] was 8.22 and the inhibition [1] was 25.6%. It also gave an IC50 (Steryl-sulfatase [4]) of 31.6 µM.
With `CCCCCCCCCOC(=O)c1ccc(OS(N)(=O)=O)cc1` the inhibition [2] was 76.2% and the IC50 (Steryl-sulfatase [4]) was 4.8 µM.
Work on `CCCCCCCCCCOC(=O)c1ccc(OS(N)(=O)=O)cc1` yielded an inhibition [1] of 36.5% and an IC50 (Steryl-sulfatase [4]) of 22.4 µM.
In the case of `COC(=O)c1ccc(OS(N)(=O)=O)cc1`, the IC50 (Steryl-sulfatase [5]) is reported as 31.6 µM, the inhibition [6] is reported as 25.4% and the pKa [3] is reported as 8.28. The inhibition [7] was 74.7%.
`CCCCCCCCOC(=O)c1ccc(OS(N)(=O)=O)cc1` showed an inhibition [2] of 80.4%, an inhibition [1] of 63% and an IC50 (Steryl-sulfatase [4]) of 5 µM.
Compound `CCCOC(=O)c1ccc(OS(N)(=O)=O)cc1` has an inhibition [2] of 76.9%, a pKa [3] of 8.03 and an inhibition [1] of 42.6%. It also gave an IC50 (Steryl-sulfatase [4]) of 13.2 µM.
For `CCCCOC(=O)c1ccc(OS(N)(=O)=O)cc1`, the pKa [3] was 8.07, the inhibition [1] was 48.3% and the IC50 (Steryl-sulfatase [4]) was 10.5 µM.
For `CCCCCCCOC(=O)c1ccc(OS(N)(=O)=O)cc1`, the inhibition [2] was 83.7%, the pKa [3] was 8.27 and the inhibition [1] was 69.5%. It also gave an IC50 (Steryl-sulfatase [4]) of 3.4 µM.
For `CCCCCCOC(=O)c1ccc(OS(N)(=O)=O)cc1`, the pKa [3] was 8.52, the inhibition [1] was 72.6% and the IC50 (Steryl-sulfatase [4]) was 3.8 µM.
Compound `CCCCCOC(=O)c1ccc(OS(N)(=O)=O)cc1` has an inhibition [2] of 86.2%, a pKa [3] of 8.47 and an inhibition [1] of 64.4%. For the same compound, the IC50 (Steryl-sulfatase [4]) was 5.9 µM.
